According to ChEMBL document CHEMBL1149067, “Ochrindoles A-D: new bis-indolyl benzenoids from the sclerotia of Aspergillus ochraceus NRRL 3519” (J Nat Prod, 1994):

How the values were obtained:
Helicoverpa zea = assay: Toxicity against Helicoverpa zea larvae assessed as weight gain relative to control; assay type: organism-based; settings: in vivo
Carpophilus = assay: Toxicity against Carpophilus hemipterus assessed as feeding reduction at 200 ppm relative to control; assay type: organism-based; parameters: scale not given: the % may be the effect or the level left; settings: in vivo
Bacillus subtilis = assay: Antimicrobial activity against Bacillus subtilis at 100 ug/disk by standard disk assay; assay type: functional; settings: read-out: IZ

SMILES | Activity (Helicoverpa zea) [%] | Activity (Carpophilus) [%] | zone of inhibition at 100 µg/disc (Bacillus subtilis) [mm]
COc1c(CC=C(C)C)c(-c2c[nH]c3ccccc23)c(OC)c(O)c1-c1c[nH]c2ccccc12 [OCHRINDOLE A] | 30 | 20 | 15
COc1c(C/C=C(\C)CO)c(-c2c[nH]c3ccccc23)c(OC)c(O)c1-c1c[nH]c2ccccc12 [OCHRINDOLE B] | – | – | 15
COc1c(CC=C(C)C)c(-c2c[nH]c3ccccc23)c(O)c(O)c1-c1c[nH]c2ccccc12 [OCHRINDOLE C] | – | – | 15
CC(C)=CCC1=C(c2c[nH]c3ccccc23)C(=O)C(O)=C(c2c[nH]c3ccccc23)C1=O [OCHRINDOLE D] | – | – | 15
